This is an account of results in patent US20190225650A1, “PEPTIDOMIMETIC MACROCYCLES AND USE THEREOF IN REGULATING HIF1ALPHA” (AILERON THERAPEUTICS, INC., priority 2013, published 2019).

Bridge positions count the residues as written; N and C are the ends. Square brackets hold non-standard residues; d marks the D form. Peptide text beside a SMILES is read from it. R8 = C=CCCCCCC[C@@](C)(N)C(=O)O; S5 = C=CCCC[C@](C)(N)C(=O)O; Nle = CCCC[C@H](N)C(=O)O

Assay [1] concerns HRE-bla ME-180 cells. In words: Cell proliferation assay (viability, MTT, 1% FBS). In kind it is cell-based, human. In short, it runs like this: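 ME-180 cells (2×10^4/well) in Opti-MEM with 1% FBS were pretreated 16 h under normoxia (21% O2), vehicle 0.5% DMSO final. Incubation then continued under normoxia or hypoxia (1% O2); viable cells quantified by MTT-type CellTiter 96 assay.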

Assay [2] concerns the target T1, flag-tagged HIF1α (AA 786-826) / His6-tagged p300 (AA 323-423) complex (Homo sapiens, UniProt Q09472).
T1 construct: His6-tagged p300 (AA 323-423); made in house; host or cells: E. coli (pETDuet vector)
The assay is described as follows: HIF1α p300 displacement assay (TR FRET, +CHAPS). As to conditions: read-out: IC50 (nM) (HIF1α_p300 Displacement + CHAPS). The format is binding. In short, it runs like this: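 The co-expressed flag-HIF1α (786-826)/His6-p300 (323-423) complex, purified from E. coli with 0.1 mM ZnSO4, was used at 300 nM final with competitor peptides for 1 h at room temperature. Buffer was 150 mM NaCl, 20 mM HEPES pH 7.4, 7.5 mM CHAPS and 1 mM DTT. Anti-Flag-K (0.5 μM) and anti-His-D2 (4 nM) were then added for 2 h, and IC50s were fitted from the TR-FRET ratio.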

The test system of assay [3] is HRE-bla ME-180 cells. The assay is described as follows: Reporter gene assay (HRE-bla ME-180 HIF reporter, GeneBLAzer). In kind it is cell-based, human. Particulars: for EC50: 24 hour normoxia. In short, it runs like this:
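A FRET β-lactamase readout of HIF transcription was used. After compound treatment in 0.3% DMSO/media under normoxic conditions, 20 μl of 6× LiveBLAzer-FRET B/G (CCF4-AM) substrate was added. Plates sat 3 hr at room temperature in the dark and were read at 409 Ex/460Em and 409Ex/530Em on a Synergy 2. Inhibition was compared against DMSO vehicle controls, with chetomin as positive control.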
(In general: Reporter assays use an easily measured gene product as a stand-in for the process of interest.)

T1 sequence (Q09472 323-423, one chain of several): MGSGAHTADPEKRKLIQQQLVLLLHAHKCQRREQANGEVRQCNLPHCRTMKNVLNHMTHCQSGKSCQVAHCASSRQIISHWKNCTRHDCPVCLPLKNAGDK

The IC50 is the point on the concentration scale where inhibition reaches its midpoint. Broadly, the EC50 is the concentration that produces a half-maximal response. For the molecule `CCCC[C@H](NC(=O)[C@H](CC(C)C)NC(=O)[C@@H](NC(=O)[C@H](CCC(=O)O)NC(=O)[C@H](CCC(=O)O)NC(=O)[C@H](CC(=O)O)NC(=O)[C@@H](NC(=O)[C@H](CC(N)=O)NC(=O)[C@@H](NC(=O)[C@H](CCC(N)=O)NC(=O)[C@]1(C)CCCC=CCCC[C@](C)(NC(=O)[C@H](CC(C)C)NC(=O)[C@H](CCC(=O)O)NC(=O)[C@H](CCC(=O)O)NC(=O)CNC(=O)[C@H](CCC(N)=O)NC(=O)[C@H](CC(C)C)NC(=O)[C@H](CC(C)C)NC(C)=O)C(=O)N[C@@H](CCCNC(=N)N)C(=O)N[C@@H](C)C(=O)N[C@@H](CC(C)C)C(=O)N1)C(C)C)[C@@H](C)CC)C(C)C)C(=O)N[C@@]1(C)CCCC=CCCC[C@@](C)(C(=O)N[C@@H](CCCC)C(=O)NCC(N)=O)NC(=O)[C@H]([C@@H](C)CC)NC(=O)[C@H](C(C)C)NC(=O)[C@H](CC(C)C)NC1=O` [SP-308] (Ac-LLQGEEL[S5]RAL[S5]QVNIDEEVL[Nle][S5]LVI[S5][Nle]G-NH2; staple 8-12, 23-27), the “Viability 1% FBS AVG (MTT V3-24 hr Normoxia) (μM)” value (shortened to “Viability 1% FBS AVG”) in the assay with HRE-bla ME-180 cells [1] is “++++ (≥30: ++++)”. The IC50 in assay [2] was in the range of 200 to 400 nM. In the assay with HRE-bla ME-180 cells [3], the “18 h Avg % max inhibition at top conc (HIF Rptr-24 hrs normoxia) (μM)” value (“18 h Avg % max inhibition at top conc” below) is recorded as “++++ (≥50: ++++)” and the EC50 was 15 to 30 µM.
The matching figures for `CCCC[C@H](NC(=O)[C@H](CC(C)C)NC(=O)[C@@H](NC(=O)[C@H](CCC(=O)O)NC(=O)[C@H](CCC(=O)O)NC(=O)[C@H](CC(=O)O)NC(=O)[C@@H](NC(=O)[C@H](CC(N)=O)NC(=O)[C@@H](NC(=O)[C@]1(C)CCCC=CCCCCCC[C@@](C)(NC(=O)[C@H](CCC(=O)O)NC(=O)CNC(=O)[C@H](CCC(N)=O)NC(=O)[C@H](CC(C)C)NC(=O)[C@H](CC(C)C)NC(C)=O)C(=O)N[C@@H](CC(C)C)C(=O)N[C@@H](CC(C)C)C(=O)N[C@@H](CCCNC(=N)N)C(=O)N[C@@H](C)C(=O)N[C@@H](CC(C)C)C(=O)N[C@@H](CC(=O)O)C(=O)N1)C(C)C)[C@@H](C)CC)C(C)C)C(=O)N[C@@]1(C)CCCC=CCCC[C@@](C)(C(=O)N[C@@H](CCCC)C(=O)NCC(N)=O)NC(=O)[C@H]([C@@H](C)CC)NC(=O)[C@H](C(C)C)NC(=O)[C@H](CC(C)C)NC1=O` [SP-309] (Ac-LLQGE[R8]LLRALD[S5]VNIDEEVL[Nle][S5]LVI[S5][Nle]G-NH2; staple 6-13, 23-27): “++++ (≥30: ++++)”, 200 to 400 nM, “+ (<10: +)” and greater than 30 µM.
The matching figures for `CCCC[C@H](NC(=O)[C@H](CCC(=O)O)NC(=O)[C@]1(C)CCCC=CCCCCCC[C@@](C)(NC(=O)[C@H](CCC(=O)O)NC(=O)[C@H](CC(=O)O)NC(=O)[C@@H](NC(=O)[C@H](CC(N)=O)NC(=O)[C@@H](NC(=O)[C@H](CCC(N)=O)NC(=O)[C@H](CC(=O)O)NC(=O)[C@H](CC(C)C)NC(=O)[C@H](C)NC(=O)[C@H](CCCNC(=N)N)NC(=O)[C@]2(C)CCCC=CCCC[C@](C)(NC(=O)[C@H](CCC(N)=O)NC(=O)[C@H](CC(C)C)NC(=O)[C@H](CC(C)C)NC(C)=O)C(=O)N[C@@H](CCC(=O)O)C(=O)N[C@@H](CCC(=O)O)C(=O)N[C@@H](CC(C)C)C(=O)N2)C(C)C)[C@@H](C)CC)C(=O)N[C@@H](C(C)C)C(=O)N[C@@H](CC(C)C)C(=O)N[C@@H](CCCC)C(=O)N[C@@H](CO)C(=O)N[C@@H](CC(C)C)C(=O)N[C@@H](C(C)C)C(=O)N1)C(=O)NCC(N)=O` [SP-310] (Ac-LLQ[S5]EEL[S5]RALDQVNIDE[R8]VL[Nle]SLV[S5]E[Nle]G-NH2; staple 4-8, 19-26): “++++ (≥30: ++++)”, 400 to 700 nM, “+ (<10: +)” and greater than 30 µM.
For the molecule `CCCC[C@H](NC(=O)[C@H](CCC(=O)O)NC(=O)[C@]1(C)CCCC=CCCCCCC[C@@](C)(NC(=O)[C@H](CCC(=O)O)NC(=O)[C@H](CC(=O)O)NC(=O)[C@@H](NC(=O)[C@H](CC(N)=O)NC(=O)[C@@H](NC(=O)[C@H](CCC(N)=O)NC(=O)[C@H](CC(=O)O)NC(=O)[C@H](CC(C)C)NC(=O)[C@]2(C)CCCC=CCCC[C@](C)(NC(=O)[C@H](CCC(=O)O)NC(=O)CNC(=O)[C@H](CCC(N)=O)NC(=O)[C@H](CC(C)C)NC(=O)[C@H](CC(C)C)NC(C)=O)C(=O)N[C@@H](CC(C)C)C(=O)N[C@@H](CC(C)C)C(=O)N[C@@H](CCCNC(=N)N)C(=O)N2)C(C)C)[C@@H](C)CC)C(=O)N[C@@H](C(C)C)C(=O)N[C@@H](CC(C)C)C(=O)N[C@@H](CCCC)C(=O)N[C@@H](CO)C(=O)N[C@@H](CC(C)C)C(=O)N[C@@H](C(C)C)C(=O)N1)C(=O)NCC(N)=O` [SP-311] (Ac-LLQGE[S5]LLR[S5]LDQVNIDE[R8]VL[Nle]SLV[S5]E[Nle]G-NH2; staple 6-10, 19-26), the “Viability 1% FBS AVG” value in the assay on HRE-bla ME-180 cells [1] was “++++ (≥30: ++++)”. Moreover, in assay [2], the IC50 is greater than 700 nM. Besides, in the assay with HRE-bla ME-180 cells [3], the “18 h Avg % max inhibition at top conc” value is listed as “++ (≤10 but <25: ++)” and the EC50 was greater than 30 µM.
The matching figures for `CCCC[C@H](NC(=O)[C@H](CCC(=O)O)NC(=O)[C@]1(C)CCCC=CCCCCCC[C@@](C)(NC(=O)[C@H](CCC(=O)O)NC(=O)[C@H](CC(=O)O)NC(=O)[C@@H](NC(=O)[C@H](CC(N)=O)NC(=O)[C@@H](NC(=O)[C@H](CCC(N)=O)NC(=O)[C@]2(C)CCCC=CCCC[C@](C)(NC(=O)[C@H](CC(C)C)NC(=O)[C@H](CCC(=O)O)NC(=O)[C@H](CCC(=O)O)NC(=O)CNC(=O)[C@H](CCC(N)=O)NC(=O)[C@H](CC(C)C)NC(=O)[C@H](CC(C)C)NC(C)=O)C(=O)N[C@@H](CCCNC(=N)N)C(=O)N[C@@H](C)C(=O)N[C@@H](CC(C)C)C(=O)N2)C(C)C)[C@@H](C)CC)C(=O)N[C@@H](C(C)C)C(=O)N[C@@H](CC(C)C)C(=O)N[C@@H](CCCC)C(=O)N[C@@H](CO)C(=O)N[C@@H](CC(C)C)C(=O)N[C@@H](C(C)C)C(=O)N1)C(=O)NCC(N)=O` [SP-312] (Ac-LLQGEEL[S5]RAL[S5]QVNIDE[R8]VL[Nle]SLV[S5]E[Nle]G-NH2; staple 8-12, 19-26): “++++ (≥30: ++++)”, greater than 700 nM, “++++ (≥50: ++++)” and no more than 5 µM.
With `CCCC[C@H](NC(=O)[C@H](CCC(=O)O)NC(=O)[C@]1(C)CCCC=CCCCCCC[C@@](C)(NC(=O)[C@H](CCC(=O)O)NC(=O)[C@H](CC(=O)O)NC(=O)[C@@H](NC(=O)[C@H](CC(N)=O)NC(=O)[C@@H](NC(=O)[C@]2(C)CCCC=CCCCCCC[C@@](C)(NC(=O)[C@H](CCC(=O)O)NC(=O)CNC(=O)[C@H](CCC(N)=O)NC(=O)[C@H](CC(C)C)NC(=O)[C@H](CC(C)C)NC(C)=O)C(=O)N[C@@H](CC(C)C)C(=O)N[C@@H](CC(C)C)C(=O)N[C@@H](CCCNC(=N)N)C(=O)N[C@@H](C)C(=O)N[C@@H](CC(C)C)C(=O)N[C@@H](CC(=O)O)C(=O)N2)C(C)C)[C@@H](C)CC)C(=O)N[C@@H](C(C)C)C(=O)N[C@@H](CC(C)C)C(=O)N[C@@H](CCCC)C(=O)N[C@@H](CO)C(=O)N[C@@H](CC(C)C)C(=O)N[C@@H](C(C)C)C(=O)N1)C(=O)NCC(N)=O` [SP-313] (Ac-LLQGE[R8]LLRALD[S5]VNIDE[R8]VL[Nle]SLV[S5]E[Nle]G-NH2; staple 6-13, 19-26), the “Viability 1% FBS AVG” value in the assay with HRE-bla ME-180 cells [1] is “++++ (≥30: ++++)”. Moreover, the IC50 in assay [2] was 200 to 400 nM. Also, in the assay with HRE-bla ME-180 cells [3], the “18 h Avg % max inhibition at top conc” value was “+ (<10: +)” and the EC50 was greater than 30 µM.
The matching figures for `CC[C@H](C)[C@H](NC(=O)[C@H](CC(N)=O)NC(=O)[C@@H](NC(=O)[C@H](CCC(N)=O)NC(=O)[C@H](CC(=O)O)NC(=O)[C@H](CC(C)C)NC(=O)[C@H](C)NC(=O)[C@H](CCCNC(=N)N)NC(=O)[C@H](CC(C)C)NC(=O)[C@H](CC(C)C)NC(=O)[C@H](CCC(=O)O)NC(=O)[C@H](CCC(=O)O)NC(=O)CNC(=O)[C@H](CCC(N)=O)NC(=O)[C@H](CC(C)C)NC(=O)[C@H](CC(C)C)NC(C)=O)C(C)C)C(=O)N[C@@H](CC(=O)O)C(=O)N[C@@H](CCC(=O)O)C(=O)N[C@@]1(C)CCCC=CCCC[C@@](C)(C(=O)N[C@@H](CC(C)C)C(=O)N[C@H](C(=O)N[C@H](C(=O)N[C@@H](CCC(=O)O)C(=O)N[C@@H](CCSC)C(N)=O)[C@@H](C)CC)C(C)C)NC(=O)[C@H](CCSC)NC(=O)[C@H](CC(C)C)NC(=O)[C@H](C(C)C)NC1=O` [SP-318] (Ac-LLQGEELLRALDQVNIDE[S5]VLM[S5]LVIEM-NH2; staple 19-23): “++++ (≥30: ++++)”, 400 to 700 nM, “+ (<10: +)” and greater than 30 µM.
